Several values for one entry are separate records, joined by “and”; a condition that tells them apart may be missing. Equal entries are not always repeated. Where two headings read alike, the source gives them in different places. Numbered stars: 1 amine (or outer) side, 2 acyl side, 3 side chain; on linkers, the order of the positions; unused ones are H or OH. Bridge positions count the residues as written; N and C are the ends. Peptide text beside a SMILES is read from it. * marks the point of attachment. X1 = O=C(O)CN1CCN(CC(=O)O)CCN(CC(=O)N2CCN(Cc3cc(C[*:1])cc(C[*:2])c3)CC2)CCN(CC(=O)O)CC1; Hexanoyl = CCCCCC(=O)*
What was measured:
[1] = In vivo biodistribution by SPECT/CT imaging; set-up: species or system C57BL/6 mice; details: female, C57BL/6, mouse, total radioactivity; for tissue uptake at 3 h / tissue uptake at 24 h / tissue uptake at 48 h / tissue uptake at 72 h: mean ± SD, n = 6, SD
Experimental: All animal experiments were carried out under licenses approved by the respective authorities and in compliance with guidelines on animal welfare. […] Animals were anesthetized (isoflurane 3% in 100% O2) and eye lubricants were applied before each scan. Study was performed at Minerva Imaging ApS (Denmark).
Imaging and image analysis were performed as described. During the scan, mice were kept under isoflurane anesthesia, and body temperature was maintained under warm air. The following acquisition parameters were used for the respective imaging modality.
For quantification, VivoQuant (InviCRO) was used to draw regions of interest (ROIs) in relevant tissues, with a ROI drawn over the left ventricle of the heart to serve as blood pool surrogate. Percentage injected dose per gram of tissue (%ID/g) was calculated from the tissue-associated radioactivity determined in the ROI, the volume of the ROI, and the decay-corrected dose entered during preprocessing of the images in VivoQuant.

MCA205-mFAP tumors = experiment: Tumor mass in pharmacodynamic study; format: in vivo, C57BL/6 mice; details: day 13 pi; n = 8 per group; vehicle 1433 mg
Description: (§1) Female C57BL/6 mice were subcutaneously implanted with 1 × 10^6 MCA205-mFAP cells (n = 12 per group). […] Treatment began when the MTV was 94 mm^3 (mean body weight 20.4 g). […] Treatment began when MTV was 162 mm^3 (mean body weight 20.8 g) and tumors were collected at days 8 and 13 pi for analysis.

[2] = test system: immune gene expression in MCA205-mFAP tumors; experiment: Tumor RNA expression analysis (nCounter PanCancer Immune Profiling panel); format: in vivo, C57BL/6 mice
Description: Total RNA was isolated from tumors using the PureLink RNA Mini kit (Thermo Fisher Scientific) following the manufacturer’s protocol. The nCounter PanCancer Immune Profiling (mouse) panel (NanoString Technologies) was used to measure the expression in the RNA samples. Following hybridization, transcripts were quantitated and analyzed using the nCounter Digital Analyzer and nCounter Advanced Analysis Software v4.0 (NanoString Technologies). Data were normalized for assay efficiency by multiplying each count by a positive normalization factor obtained for each sample. For differential expression analysis, the Benjamini-Yekutieli statistical analysis, which calculates false discovery rate, was employed to generate an adjusted p-value.

[3] = test system: MCA205-mFAP syngeneic tumor model; experiment: Tumor in vivo efficacy study
Experimental: Female C57BL/6 mice were subcutaneously implanted with 1 × 10^6 MCA205-mFAP cells (n = 12 per group). […] Treatment began when the MTV was 94 mm^3 (mean body weight 20.4 g).
Calculation of tumor growth inhibition (TGI). Percent TGI is defined as the difference between the mean tumor volume of the test group and the control group. TGI values are calculated as follows:
Tᵢ is the mean tumor volume of a treatment group on a given day i, T₀ is the mean tumor volume of the treatment group on the day treatment started (day 0), Vᵢ is the mean tumor volume of the vehicle control group on the same day as Tᵢ, and V₀ is the mean tumor volume of the vehicle group on the initial day of treatment (day 0).
Calculation of body weight loss. Relative body weight (RBW) was calculated as follows:
BWᵢ is the mean body weight of one group on a given day i, BW0 is the mean body weight of the same group on the day treatment started (day 0).
Statistical analysis. For the evaluation of the statistical significance of antitumor efficacy, body weight change, and immune profiling, two-way ANOVA with multiple comparisons was performed using GraphPad Prism (Version 8.4).
All P values <0.05 were considered statistically significant.

[4] = test system: immune infiltrates of MCA205-mFAP tumors; experiment: Ex vivo immune profiling of tumors by flow cytometry; details: for CD8^+ (%, CD45^+) / CD86^+ on TAM (MFI) / CD127^+CD8^+ (%, CD8^+) / CD127 on CD127^+CD8^+ (MFI) / T cells (%, CD45^+) / TAM (%, CD45^+) / CD45^+ (%, total): mean ± SEM; for CD8^+ (%, CD45^+) / CD86^+ on TAM (MFI) / CD127^+CD8^+ (%, CD8^+) / CD127 on CD127^+CD8^+ (MFI) / T cells (%, CD45^+) / TAM (%, CD45^+) / CD4+ (%, CD45+) / CD25+CD4+ (%, CD4+) / CD25+CD8+ (%, CD8+) / CD25 on CD4+ (MFI) / CD25 on CD25+CD8+ (MFI) / CD86+ TAMs (%, TAMs) / CD127+CD4+ (%, CD4+) / CD127 on CD4+ (MFI) / CD45^+ (%, total): n = 8 per group; for CD45^+ (%, total): tumor flow cytometry;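 on all read-outs here: subcutaneous MCA205-mFAP tumors in female C57BL/6 mice, treated from a mean tumor volume of 162 mm^3, excised on day 8 or 13 pi and profiled by flow cytometry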
Experimental: as §1
Tumors were dissected into small pieces, digested using a tumor dissociation enzyme mix (Miltenyi Biotec) at 37 °C for 40 min in a shaking water bath, processed through 70 μM cell strainers and counted (NucleoCounter NC-202, Chemotec). Cells (10 × 10^6) were Fc-blocked (2.4G2, BD Biosciences) and stained in FACS buffer (PBS with 0.5% BSA, 0.1% NaN3 and 2 mM EDTA) with Brilliant Stain Buffer Plus (BD Biosciences) for surface markers CD45 (30-F11), CD3 (145-2C11), CD4 (RM4-5), CD8 (53–6.7), CD25 (PC61), CD127 (SB/199), Ly6g (1A8), Ly6c (HK1.4), CD11b (M1/70), CD86 (GL1), CD314 (CX5), F4/80 (T45-2342), and eFlour 780 fixable viability dye (Thermo Fisher Scientific) for 30 min on ice. Anti-Ly6c was purchased from Biolegend, while remaining antibodies were from BD Biosciences. Samples were washed and acquired on the FACSymphony A3 and analyzed in FlowJo v10.8.1 (BD Biosciences, Supplementary Fig. S1).
PMN-MDSC CD45+ CD11b+ Ly6c+ Ly6g+
Mo-MDSC CD45+ CD11b+ Ly6c HighLy6g-
Gating strategy for immune profiling of MCA205-mFAP tumors by flow
cytometry. Representative bivariate density plots show gating strategy to identify the PMN-MDSC, Mo-
MDSC, TAM and T-cells in the MCA205-mFAP tumors (A). Marker sets used to identify each immune
cell type are listed (B).

[5] = test system: T cell infiltrates of MCA205-mFAP tumors; experiment: IHC quantification of CD8+ and CD4+ T cells in tumors
Experimental: Tumors were formalin-fixed and paraffin-embedded and processed into 4 μm tissue sections. Tumor sections were stained for FAP (EPR20021, Abcam), CD8 (D4W2Z, Cell Signaling), and CD4 (EPR19514, Abcam) on a Bond Rx autostainer (Leica Biosystems) with Bond Polymer Refine Detection (Leica Biosystems) according to the manufacturer's protocol. After staining, sections were dehydrated and film cover slipped using a TissueTek-Prisma and Coverslipper (Sakura). Whole slide scanning (40x) was performed on an Aperio AT2 (Leica Biosystems). Image analysis and quantification was performed on Aperio ImageScope v12.1 (Leica Biosystems) or QuPath v0.1.2 [18].
A tissue slide containing both intrinsic positive staining structures was included in every staining run. For FAP H-score assessment, the staining intensity was scored as 0, 1, 2, or 3 corresponding to the presence of negative, weak, intermediate, and strong brown staining, respectively. The average percentage positive was calculated for each intensity category and the following calculation was applied: H-score = (% of cells stained at intensity category 1 x 1) + (% of cells stained at intensity category 2 x 2) + (% of cells stained at intensity category 3 x 3). Image analysis scoring was previously validated against scoring performed by a pathologist. For CD4 and CD8 percentage assessment, QuPath positive cell detection function was used.

[6] = day 8 pi, differential expression versus vehicle, 770-plex panel

Compound CCCCCC(=O)N[C@H]1CSCc2cc(cc(CN3CCN(C(=O)CN4CCN(CC(=O)O)CCN(CC(=O)O)CCN(CC(=O)O)CC4)CC3)c2)CSC[C@@H](C(=O)N[C@@H](CC(=O)O)C(N)=O)NC(=O)[C@H](Cc2ccccc2)NC(=O)[C@H](CCC(N)=O)NC(=O)[C@H]([C@@H](C)O)NC(=O)[C@@H]2CCCN2C(=O)[C@@H]2CCCN2C1=O [^177Lu-FAP-2287, metal not drawn] (Hexanoyl-CPPTQFCD-NH2; linker 1-7 via X1; N-terminus and C-terminus assumed) has a tissue uptake at 3 h ([1]; blood pool surrogate (left ventricle of the heart), iv, 30 MBq, 3 h p.i., ROI over left ventricle of the heart, read-out: Blood Pool Surrogate %ID/g) of 0.5 %ID/g, a tissue uptake at 24 h ([1]; blood pool surrogate (left ventricle of the heart), iv, 30 MBq, 24 h p.i., ROI over left ventricle of the heart, read-out: Blood Pool Surrogate %ID/g) of 0.1 %ID/g and a tissue uptake at 48 h ([1]; blood pool surrogate (left ventricle of the heart), iv, 30 MBq, 48 h p.i., ROI over left ventricle of the heart, read-out: Blood Pool Surrogate %ID/g) of 0.1 %ID/g. The tissue uptake at 72 h ([1]; blood pool surrogate (left ventricle of the heart), iv, 30 MBq, 72 h p.i., ROI over left ventricle of the heart, read-out: Blood Pool Surrogate %ID/g) was 0.1 %ID/g, the tissue uptake at 3 h ([1]; kidney, 3 h p.i., 30 MBq iv, read-out: Kidney %ID/g) was 2 ± 0.1 %ID/g and the tissue uptake at 24 h ([1]; kidney, 24 h p.i., 30 MBq iv, read-out: Kidney %ID/g) was 1.1 ± 0.1 %ID/g. It also gave a tissue uptake at 48 h ([1]; kidney, 48 h p.i., 30 MBq iv, read-out: Kidney %ID/g) of 0.9 %ID/g, a tissue uptake at 72 h ([1]; kidney, 72 h p.i., 30 MBq iv, read-out: Kidney %ID/g) of 0.6 ± 0.1 %ID/g and a tissue uptake at 3 h ([1]; liver, 3 h p.i., 30 MBq iv, read-out: Liver %ID/g) of 0.5 %ID/g. For the same compound, the tissue uptake at 24 h ([1]; liver, 24 h p.i., 30 MBq iv, read-out: Liver %ID/g) was 0.3 %ID/g, the tissue uptake at 48 h ([1]; liver, 48 h p.i., 30 MBq iv, read-out: Liver %ID/g) was 0.3 %ID/g and the tissue uptake at 72 h ([1]; liver, 72 h p.i., 30 MBq iv, read-out: Liver %ID/g) was 0.2 %ID/g. The tissue uptake at 3 h ([1]; tumor, 3 h p.i., 30 MBq (1 nmol) iv, SPECT/CT, read-out: Tumor %ID/g) was 8.2 ± 0.5 %ID/g, the tissue uptake at 24 h ([1]; tumor, 24 h p.i., 30 MBq (1 nmol) iv, SPECT/CT, read-out: Tumor %ID/g) was 2.9 ± 0.2 %ID/g and the tissue uptake at 48 h ([1]; tumor, 48 h p.i., 30 MBq (1 nmol) iv, SPECT/CT, read-out: Tumor %ID/g) was 1.6 ± 0.1 %ID/g. The tissue uptake at 72 h ([1]; tumor, 72 h p.i., 30 MBq (1 nmol) iv, SPECT/CT, read-out: Tumor %ID/g) was 0.9 ± 0.1 %ID/g, the tissue to tissue ratio at 3 h ([1]; tumor/kidney, iv, 30 MBq, 3 h p.i., read-out: T/K ratio (tumor-to-kidney)) was 4.1 and the tissue to tissue ratio at 24 h ([1]; tumor/kidney, iv, 30 MBq, 24 h p.i., read-out: T/K ratio (tumor-to-kidney)) was 2.6. For the same compound, the tissue to tissue ratio at 48 h ([1]; tumor/kidney, iv, 30 MBq, 48 h p.i., read-out: T/K ratio (tumor-to-kidney)) was 1.8, the tissue to tissue ratio at 72 h ([1]; tumor/kidney, iv, 30 MBq, 72 h p.i., read-out: T/K ratio (tumor-to-kidney)) was 1.5 and the Tumor mass (MCA205-mFAP tumors) was 746 mg. The “number of gene transcripts decreased” value [2, 6] was 15 genes, the “number of genes with significantly increased RNA levels” value [2, 6] was 28 genes and the “number of day 8 differentially expressed genes still differentially expressed at day 13 pi” value ([2]; day 13 pi) was 16 genes. For the same compound, the “CCL5 RNA increase in tumors” value ([2]; fold versus vehicle, day not given) was 1.95 fold, the “TGI, Day 10” value ([3]; day 10 pi, versus vehicle, n = 12 per group) was 74% and the “MTV, Day 10” value ([3]; day 10 pi, 60 MBq 177Lu-FAP-2287 single iv dose and/or 10 mg/kg anti-PD-1 ip twice weekly, mean ± SEM, n = 12, vehicle 749.6 ± 91.2, SEM) was 266.5 ± 53.2 mm^3. For the same compound, the RBW at nadir ([3]; relative body weight change at nadir (Day 2), mean ± SEM, n = 12, SEM) was -1.1 ± 0.7%, the “CD8^+ (%, CD45^+)” value ([4]; Day 8 pi, SEM) was 16.9 ± 3.2% and the “CD86^+ on TAM (MFI)” value ([4]; Day 8 pi, SEM) was 3928 ± 124 MFI. The “CD127^+CD8^+ (%, CD8^+)” value ([4]; Day 8 pi, SEM) was 50.0 ± 5.3%, the “CD127 on CD127^+CD8^+ (MFI)” value ([4]; Day 8 pi, SEM) was 1011 ± 118 MFI and the “T cells (%, CD45^+)” value ([4]; Day 8 pi, SEM) was 22.9 ± 3.6%. The “TAM (%, CD45^+)” value ([4]; Day 8 pi, SEM) was 23.0 ± 1.1%, the “CD4+ (%, CD45+)” value ([4]; Day 8 pi) was 6.0 ± 0.6% and the “CD25+CD4+ (%, CD4+)” value ([4]; Day 8 pi) was 60.4 ± 1.3%. For the same compound, the “CD25+CD8+ (%, CD8+)” value ([4]; Day 8 pi) was 7.7 ± 1.1%, the “CD25 on CD4+ (MFI)” value ([4]; Day 8 pi) was 931 ± 117 MFI and the “CD25 on CD25+CD8+ (MFI)” value ([4]; Day 8 pi) was 84 ± 6 MFI. The “CD86+ TAMs (%, TAMs)” value ([4]; Day 8 pi) was 89.5 ± 1.7%, the “CD127+CD4+ (%, CD4+)” value ([4]; Day 8 pi) was 41.0 ± 1.8% and the “CD127 on CD4+ (MFI)” value ([4]; Day 8 pi) was 777 ± 43 MFI. The “CD45^+ (%, total)” value ([4]; Day 8 pi, SEM) was 23.6 ± 3.1%, the “CD8^+ (%, CD45^+)” value ([4]; Day 13 pi, SEM) was 11.9 ± 1.5% and the “CD86^+ on TAM (MFI)” value ([4]; Day 13 pi, SEM) was 4063 ± 143 MFI. For the same compound, the “CD127^+CD8^+ (%, CD8^+)” value ([4]; Day 13 pi, SEM) was 44.5 ± 3.7%, the “CD127 on CD127^+CD8^+ (MFI)” value ([4]; Day 13 pi, SEM) was 874 ± 86 MFI and the “T cells (%, CD45^+)” value ([4]; Day 13 pi, SEM) was 19.0 ± 1.5%. For the same compound, the “TAM (%, CD45^+)” value ([4]; Day 13 pi, SEM) was 39.4 ± 1.4%, the “CD4+ (%, CD45+)” value ([4]; Day 13 pi) was 7.2 ± 0.4% and the “CD25+CD4+ (%, CD4+)” value ([4]; Day 13 pi) was 64.5 ± 1.2%. The “CD25+CD8+ (%, CD8+)” value ([4]; Day 13 pi) was 5.3 ± 0.6%, the “CD25 on CD4+ (MFI)” value ([4]; Day 13 pi) was 1182 ± 80 MFI and the “CD25 on CD25+CD8+ (MFI)” value ([4]; Day 13 pi) was 70 ± 4 MFI. The “CD86+ TAMs (%, TAMs)” value ([4]; Day 13 pi) was 92.0 ± 1.2%, the “CD127+CD4+ (%, CD4+)” value ([4]; Day 13 pi) was 38.9 ± 2.2% and the “CD127 on CD4+ (MFI)” value ([4]; Day 13 pi) was 736 ± 51 MFI. For the same compound, the “CD45^+ (%, total)” value ([4]; Day 13 pi, SEM) was 21.6 ± 1.4%, the “CD86+ Mo-MDSCs (%, Mo-MDSCs)” value ([4]; mouse, in vivo) was 84.9 ± 1.2% and 82.2 ± 2.9% and the “PMN-MDSCs (%, CD45+)” value ([4]; mouse, in vivo) was 9.6 ± 3.9% and 10.0 ± 1.3%. For the same compound, the “CD86^+ on Mo-MDSC (MFI)” value ([4]; mouse, in vivo, SEM) was 3267 ± 80 MFI and 2939 ± 114 MFI, the “Mo-MDSC (%, CD45^+)” value ([4]; mouse, in vivo, SEM) was 34.9 ± 0.9% and 21.3 ± 1.3% and the “CD8^+ T cells by IHC (% of total cells)” value ([5]; day 8 pi, vehicle 4.9%) was 9.0%. For the same compound, the “CD8^+ T cells by IHC (% of total cells)” value ([5]; day 13, vehicle 4.4%) was 8.5%.
